Experimental data as given in patent US10228365B2, “Method for measuring carbohydrate metabolism ability, and composition for use in said method” (priority 2012, dated 2019).

How the values were obtained:
[1] = tested on: glucose metabolism ability; conditions: rat, in vivo, iv
Method: Fasted rats (male, SD rats) as experimental animals were divided into four groups (n=4 per group). The above-prepared ^13C-glucose solutions were individually intravenously administered to the rats in each group (1-^13-Glc-administration group, 2-^13C-Glc-administration group, 3-^13C-Glc-administration group, and U-^13-Glc-adrainistration group) in an amount of 1 mL/kg. Expired air was collected before the administration of each ^13C-glucose solution (0 minutes) and at each point in time (10, 20, 30, 40, 50, 60, 80, 100, and 120 minutes) after the administration of each ^13C-glucose solution, Δ^13C(‰) was determined with a mass spectrometer for expired air analysis (ABCA: produced by Sercon) from the concentration of ^13CO2 excreted in the expired air.
The Δ^13C(‰) was determined by measuring the ^13CO2/^12CO2 concentration ratio (δ^13C value) in the expired air before the administration of each ^13C-glucose solution (0 minutes) and in the expired air at each point in time for collecting the expired air (t minutes) after the administration of each ^13C-glucose solution, and calculating Δ^13C(‰) from the difference between the δ^13C value (δ^13Ct) at each collection point in time (t) and the δ^13C value (δ^13C0) before the administration (δ^13Ct−δ^13C0) (the same applies to the below-described Experimental Examples).

[2] = tested on: glucose metabolism ability; test: Breath test under fasting and glucose-loaded conditions; type: in vivo, rats (OLETF, LETO)
Method: OLETF rats, which are diabetic animal models, were used as experimental animals, and LETO rats were used as a control. More specifically, after being fasted for 20 hours, Group 1 (control group: […], male, n=5) and Group 2 (diabetes group; OLETF rats, male, n=6) were subjected to the following test.
An aqueous U-^13C-glucose solution (50 μmol/4 mL/kg) was orally administered to Group 1 (control group) and Group 2 (diabetes group) under fasting conditions. In each group, expired air was collected before the U-^13C-glucose administration (0 minutes) and at each point in time (10, 20, 30, 40, 50, 60, 80, 100, and 120 minutes) after the U-^13C-glucose administration. Δ^13C(‰) was determined with a mass spectrometer for expired air analysis (ABCA: produced by Sercon) from the concentration of ^13CO2 excreted in the expired air.
• (2-2-1) An aqueous glucose solution (450 mg/4 mL/kg) and an aqueous U-^13C-glucose solution (50 μmol/4 mL/kg) were orally administered simultaneously to the experimental animals of (1), i.e., Group 1 (control group) and Group 2 (diabetes group). As in (2-1), expired air was collected in each group before the U-^13C-glucose administration (0 minutes) and at each, point in time (10, 20, 30, 40, 50, 60, 80, 100, and 120 minutes) after the U-^13C-glucose administration. Δ^13C(‰) was determined from the concentration of ^13CO2 excreted in the expired air. […]

[3] = tested on: glucose metabolism ability; test: Evaluation of treatment effect of a therapeutic agent for diabetes with U-13C-glucose breath test; type: in vivo, ZDF rats; conditions: 300 mg/kg oral for three days; for expired air pattern (changes in the Δ13C(‰)) after vs before administration: non-fasting, FIG. 12
Method: Three groups of ZDF rats (Group A: healthy group (n=4), Group B: diabetes severe onset group (n=6), and Group C: diabetes moderate onset group (n=6)) were used as experimental animals. In the experiment, these ZDF rats were allowed free access to water and feed (containing saccharide, fat, and protein) (MF: Oriental Yeast Co., Ltd.). More specifically, the following experiment was performed under non-fasting conditions.
Metformin (Wako Pure Chemical Industries, Ltd., which is an active ingredient of biguanide therapeutic agents for diabetes (generic name: Melbin), was orally administered to the rats of these groups in an amount of 300 mg/kg every morning for three days. A U-^13C-glucose solution prepared by the method described in (1) of Experimental Example 1 was intravenously administered 3 hours after the administration of metformin on day 3.
Expired air was collected in the rats of each group before the U-^13-glucose administration (0 minutes) and at each point in time (10, 20, 30, 40, 50, 60, 80, 100, and 120 minutes) after the U-^13C-glucose administration. Δ^13(‰) was determined with a mass spectrometer for expired air analysis (ABCA: produced by Sercon) from the concentration of ^13CO2 excreted in the expired air.

[4] = tested on: glucose metabolism ability; test: Evaluation of treatment effect after administration of insulin with 1-13C-glucose breath test; type: in vivo, rats (Wistar; conditions: STZ rats, FIG. 13
Method: A control group (Wistar rats, male, n=3) and a type 1 diabetes group (STZ rats, male, n=3) were used as experimental animals. In the experiment, these rats were allowed free access to water and feed (containing saccharide, fat, and protein) (MF: Oriental Yeast Co., Ltd.). More specifically, the following experiment was performed under non-fasting conditions.
Rats one week after STZ (streptosocin: SIGMA) were intravenously administered in an amount of 65 mg/mL/kg was used as the type 1 diabetes group (STZ rats).
Insulin (SIGMA) was subcutaneously administered to the type 1 diabetes group in an amount of 30 U/body. […] Expired air was collected in the rats of the groups (control group, type 1 diabetes group, insulin-administered 4 h-diabetes group, and insulin-administered 24 h-diabetes group) before the 1-^13C-glucose administration (0 minutes) and at each point in time (10, 20, 30, 40, 50, 60, 80, 100, and 120 minutes) after the 1-^13C-glucose administration. Δ^13C(‰) was determined with a mass spectrometer for expired air analysis (ABCA: produced by Sercon) from the concentration of ^13CO2 excreted in the expired air.

OC[C@H]1OC(O)[C@H](O)[13C@@H](O)[C@@H]1O (stereo partly drawn) [3-^13C-glucose]
Δ13C(‰) in the expired air up to 30 minutes after the glucose solution administration (rank among 13C-glucoses) [1]: highest

OC[C@H]1OC(O)[C@H](O)[C@@H](O)[C@@H]1O (stereo partly drawn) [U-^13C-glucose]
difference between the Δ13C(‰) value of Group 1 (control group) and Group 2 (diabetes group) ([2]; fasting conditions, oral 50 μmol/4 mL/kg, FIG. 6): small
difference in the expired air response between Group 1 (control group) and Group 2 (diabetes group) ([2]; rat, in vivo): further widened
expired air pattern of Group 1 (control group) compared with Group 2 (diabetes group) ([2]; rat, in vivo): significantly high

CN(C)C(=N)N=C(N)N [therapeutic agent for diabetes, Metformin]
expired air pattern (changes in the Δ13C(‰)) after vs before administration ([3]; Group B diabetes severe onset): higher values
expired air pattern (changes in the Δ13C(‰)) after vs before administration ([3]; Group C diabetes moderate onset): higher values
glucose metabolism ability ([3]; diabetes onset groups B and C): enhanced

insulin: Insulin (SIGMA), subcutaneously administered
Δ13C(‰) compared with control group ([4]; 4 hours after 30 U/body subcutaneous): almost the same as that of the control group
expired air pattern (change in the Δ13C(‰)) ([4]; 24 hours after 30 U/body subcutaneous): low value
